Experimental data from US4942170A, “2-(substituted methylidene)-N-[3-[piperidin-1-yl]propyl]hydrazine carboximidamides useful as antiparasitics” (The Rockefeller University, priority 1988, dated 1990).
Counter-ions that a name gives are not always drawn. Like-named read-outs stand apart in the source and are kept apart here.

Legend:
[1] = test system: Trypanosoma cruzi Strain Y trypomastigotes; test: Trypanocidal assay: trypomastigotes pre-incubated with test compound, then added to HSVSM cell culture; type: cell-based; conditions: for percent of cells infected relative to untreated control at 0.5 µM / percent of cells infected relative to untreated control at 1 µM / percent of cells infected relative to untreated control at 5 µM / percent of cells infected relative to untreated control at 10 µM: Trypanosoma cruzi, read-out: percentage of cells infected by pre-treated trypomastigotes relative to untreated controls
Description: (§1) Human saphenous vein smooth muscle (HSVSM) cells are isolated from outgrowths of explants of unused portions of veins harvested for coronary artery bypass surgery as described previously by Warner et al., J. Exp. Med., 165, 1316-1331 (1987). The cells are maintained in DME medium containing 5.5 mM glucose, 25 mM HEPES and 10% FBS (Hy-Clone Laboratories,Logan, Utah). Trypanosoma cruzi Strain Y trypomastigotes are propagated as described previously by Libby et al., J. Clin. Invest., 77, 127-135 (1986), except that HSVSM cells are used in place of bovine aortic smooth muscle cells.
Test compounds are dissolved in 0.3 ml DMSO and brought to volume by dilution with serum-free DME medium. Solutions are sterilized by filtration through 0.22 μm filter units. Trypomastigotes (10^7 ml^-1) are harvested and washed twice in serum-free DME medium. Parasites are added to solutions of the test compounds to a final concentration of 10^6 ml^-1 and incubated for 3 hours at 37° C. in a 5% CO2 atmosphere. After incubation with the test compound, 0.1 ml of the parasite suspension (10^5 organisms) is diluted with 0.4 ml cell culture medium and added to a culture of HSVSM cells. After 16 hours, the HSVSM cells are washed to remove non-internalized trypomastigotes and resupplied with fresh culture medium. Infections are followed for 4-7 days by light microscopy.
Trypomastigotes were pre-incubated with a test compound or a prior art compound as described above. Results are expressed as the percentage of cells infected by pre-treated trypomastigotes relative to untreated controls.

[2] = test system: trypomastigotes; test: Ongoing infection model in human smooth muscle cells infected with trypomastigotes; type: cell-based, Trypanosoma cruzi; conditions: compound incubated 16 hours, counted 5 days after initial infection, untreated 1.85 × 10^7
Description: as §1
The effects of the compounds of the present invention have also been tested in an ongoing infection model. […] The cells are then incubated for 48 hours after which time the test compounds are added to the cultures and incubated for 16 hours. After 16 hours, the treated culture media is replaced with drug-free fresh media and cell culture is continued for a further 24 hours. Levels of parasitemia in the treated and untreated cultures are then examined.
*Number of trypomastigotes/ml counted swimming above the HSVM cell
monolayer 5 days after initial infection.

[3] = target: trypanothione reductase from C. fasciculata (Crithidia fasciculata, UniProt P39040); test: Enzymatic reduction of compounds as substrates of trypanothione reductase (NADPH oxidation, cytochrome C coupled assay); type: biochemical; conditions: aerobic
Description: FIG. 2 is a graph of the results of the enzymatic reduction of compounds C, D and E of the present invention and comparative prior art compounds as a function of substrate concentration. Relative rates were measured under aerobic conditions by coupling superoxide production to cytochrome C reduction as described.
Trypanothione disulfide reductase activity is assayed spectrophotometrically by monitoring substrate-dependent oxidation of NADPH at 340 nm. Alternatively, enzyme activity is monitored by coupling radical formation to cytochrome C reduction and measuring absorbance changes (ε550 =21 mM^-1). Absorbance changes are monitored on a spectrophotometer with a thermostated cuvette chamber. Enzyme concentration is measured spectrophotometrically using the extinction coefficient (ε464 =11.3 mM^-1, Shames et al., Biochemistry, 25, 3519-3526 (1986). Kinetic runs are carried out at 27° C. in 0.1M 4-(2-hydroxyethyl)1-piperazineethane sulfonic acid (HEPES) buffer, pH 7.8, containing 0.1 mM EDTA and 0.25 mM NADPH. Anaerobic measurements are performed in rubber stoppered cuvettes that have been flushed repeatedly with helium. All buffers and solutions used in the assays are treated in this manner. Additions to the cuvette are made with a microsyringe piercing the septum. […]

[4] = target: trypanothione reductase (Crithidia fasciculata, UniProt P39040); test: Incubation of trypanothione reductase with compound under aerobic and anaerobic conditions, dialysis, then T(S)2 reductase assay; type: biochemical, C. fasciculata; conditions: 0.277778 h, pH 7.8, read-out: loss of T(S)2 reductase activity relative to the aerobic control
Description: Trypanothione disulfide reductase activity is assayed spectrophotometrically by monitoring substrate-dependent oxidation of NADPH at 340 nm. Alternatively, enzyme activity is monitored by coupling radical formation to cytochrome C reduction and measuring absorbance changes (ε550 =21 mM^-1). Absorbance changes are monitored on a spectrophotometer with a thermostated cuvette chamber. Enzyme concentration is measured spectrophotometrically using the extinction coefficient (ε464 =11.3 mM^-1, Shames et al., Biochemistry, 25, 3519-3526 (1986). Kinetic runs are carried out at 27° C. in 0.1M 4-(2-hydroxyethyl)1-piperazineethane sulfonic acid (HEPES) buffer, pH 7.8, containing 0.1 mM EDTA and 0.25 mM NADPH. Anaerobic measurements are performed in rubber stoppered cuvettes that have been flushed repeatedly with helium. All buffers and solutions used in the assays are treated in this manner. Additions to the cuvette are made with a microsyringe piercing the septum.
Assays are carried out in 0.1M HEPES, pH 7.8, containing 1 mM EDTA, 0.15 mM […], 500 pmoles/ml trypanothione reductase and 10 μM nitrofuran VIII. Reactions are started by addition of enzyme (80 μl to a 2 ml assay). Sequential spectra (200-800 nm) are collected at 20 sec intervals using a UV/Vis spectrophotometer. At the end of the experiment, the assay mixtures are dialyzed and trypanothione reductase is assayed using 250 μM T(S)2. […]

[5] = 0.5 μM, 3 hours pre-incubation at 37° C., HSVSM cells
[6] = 1 μM, 3 hours pre-incubation at 37° C., HSVSM cells
[7] = 5 μM, 3 hours pre-incubation at 37° C., HSVSM cells
[8] = 10 μM, 3 hours pre-incubation at 37° C., HSVSM cells

Sequence of trypanothione reductase from C. fasciculata (P39040 whole entry): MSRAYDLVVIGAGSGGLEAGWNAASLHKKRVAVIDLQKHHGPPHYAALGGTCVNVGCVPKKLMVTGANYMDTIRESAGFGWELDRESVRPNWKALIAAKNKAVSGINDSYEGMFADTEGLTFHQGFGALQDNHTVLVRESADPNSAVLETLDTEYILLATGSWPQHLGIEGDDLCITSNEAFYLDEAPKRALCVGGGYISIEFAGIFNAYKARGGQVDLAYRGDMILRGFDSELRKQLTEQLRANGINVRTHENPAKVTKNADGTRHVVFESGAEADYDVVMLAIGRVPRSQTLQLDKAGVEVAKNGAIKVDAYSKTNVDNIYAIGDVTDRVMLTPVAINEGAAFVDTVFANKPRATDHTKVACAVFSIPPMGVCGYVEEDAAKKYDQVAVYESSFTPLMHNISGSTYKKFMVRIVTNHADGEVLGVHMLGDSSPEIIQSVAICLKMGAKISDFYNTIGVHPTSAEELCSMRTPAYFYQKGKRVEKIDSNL
Sequence of trypanothione reductase (P39040 whole entry): as above

2-(5-Nitro-2-furanylmethylidene)-N-[3-(4-methylpiperidin-1-yl)propyl]hydrazinecarboximidamide trihydrobromide [Compound D]
percentage of cells infected by pre-treated trypomastigotes relative to untreated controls [1, 5]: 64%
percentage of cells infected by pre-treated trypomastigotes relative to untreated controls [1, 6]: 35%
percentage of cells infected by pre-treated trypomastigotes relative to untreated controls [1, 7]: 0%
percentage of cells infected by pre-treated trypomastigotes relative to untreated controls [1, 8]: 0%
Trypomastigotes/ml counted swimming above the HSVM cell monolayer ([2]; 1 μM): 1.80 × 10^7 Trypomastigotes/ml
Trypomastigotes/ml counted swimming above the HSVM cell monolayer ([2]; 10 μM): < 2.00 × 10^4 Trypomastigotes/ml

N=C(N)NN=Cc1ccc([N+](=O)[O-])o1 [Guanofuracin, reference compound]
percent of cells infected relative to untreated control at 0.5 µM ([1]; 3 h): 100%
percent of cells infected relative to untreated control at 1 µM ([1]; 3 h): 45%
percent of cells infected relative to untreated control at 5 µM ([1]; 3 h): 0%
percent of cells infected relative to untreated control at 10 µM ([1]; 3 h): 0%

CC1CS(=O)(=O)CCN1/N=C/c1ccc([N+](=O)[O-])o1 (stereo not drawn) [Nifurtimox, reference compound]
percent of cells infected relative to untreated control at 0.5 µM ([1]; 3 h): 100%
percent of cells infected relative to untreated control at 1 µM ([1]; 3 h): 100%
percent of cells infected relative to untreated control at 5 µM ([1]; 3 h): 10%
percent of cells infected relative to untreated control at 10 µM ([1]; 3 h): 4%
trypanothione reductase-catalyzed reduction monitored by NADPH oxidation [3]: could be detected

NC(=O)N/N=C/c1ccc([N+](=O)[O-])o1 [nitrofurazone]
trypanothione reductase-catalyzed reduction monitored by NADPH oxidation [3]: could be detected

N=C(NCCCN1CCN(CCCNC(=N)NN=Cc2ccc([N+](=O)[O-])o2)CC1)NN=Cc1ccc([N+](=O)[O-])o1 [Compound E, 2,2'-Bis(5-nitro-2-furanylmethylidene)-N,N'-[1,4-piperazinediylbis(3,1-propanediyl)]-bishydrazinecarboximidamide tetrahydrobromide]
percent of cells infected relative to untreated control at 0.5 µM ([1]; 3 h): 100%
percent of cells infected relative to untreated control at 1 µM ([1]; 3 h): 0%
percent of cells infected relative to untreated control at 5 µM ([1]; 3 h): 0%
percent of cells infected relative to untreated control at 10 µM ([1]; 3 h): 0%
Trypomastigotes/ml counted swimming above the HSVM cell monolayer ([2]; 1 μM): 1.85 × 10^7 Trypomastigotes/ml
Trypomastigotes/ml counted swimming above the HSVM cell monolayer ([2]; 10 μM): 2.85 × 10^7 Trypomastigotes/ml
inhibition at 10 µM [4]: 93%

CC(CCC1=C(C)C(=O)c2ccccc2C1=O)=NNC(=N)N [Compound B, hydrochloride]
percent of cells infected relative to untreated control at 0.5 µM [1, 5]: 100%
percent of cells infected relative to untreated control at 1 µM [1, 6]: 100%
percent of cells infected relative to untreated control at 5 µM [1, 7]: 21%
percent of cells infected relative to untreated control at 10 µM [1, 8]: 8%

CC(CCC1=C(CCC(C)=NNC(=N)N)C(=O)c2ccccc2C1=O)=NNC(=N)N.Cl.Cl [Compound A, 2,3-Bis(3-(2-amidinohydrazono)butyl)-1,4-naphthoquinone dihydrochloride]
percent of cells infected relative to untreated control at 0.5 µM [1, 5]: 14%
percent of cells infected relative to untreated control at 1 µM [1, 6]: 0%
percent of cells infected relative to untreated control at 5 µM [1, 7]: 0%
percent of cells infected relative to untreated control at 10 µM [1, 8]: 0%
Trypomastigotes/ml counted swimming above the HSVM cell monolayer ([2]; 1 μM): 4.10 × 10^7 Trypomastigotes/ml
Trypomastigotes/ml counted swimming above the HSVM cell monolayer ([2]; 10 μM): 1.35 × 10^7 Trypomastigotes/ml
